Measurements from patent US20210045385A1, “PYRIDAZINONE-SUBSTITUTED KETOXIMES AS HERBICIDES” (FMC Corporation, priority 2018, published 2021).

What was measured:
Type in all cases: in vivo
[1] = system: foxtail, giant (giant foxtail, Setaria faberii); test: Test A postemergence, visual plant response rating; conditions: for Foxtail, Giant plant response rating (0 to 100 scale): 500 g ai/ha, postemergence, 0 is no effect, 100 is complete control; for Foxtail, Giant plant response rating: Postemergence, 125 g ai/ha, 0 to 100 scale (0 no effect, 100 complete control)
Excerpt: (§1) Seeds of plant species selected from barnyardgrass (Echinochloa crus-galli), kochia (Kochia scoparia), ragweed (common ragweed, Ambrosia elatior), Italian ryegrass (Lolium multiflorum), foxtail, giant (giant foxtail, Setaria faberii), foxtail, green (green foxtail, Setaria viridis), and pigweed (Amaranthus retroflexus) were planted into a blend of loam soil and sand and treated preemergence with a directed soil spray using test chemicals formulated in a non-phytotoxic solvent mixture which included a surfactant.
(§2) At the same time, plants selected from these weed species and also wheat (Triticum aestivum), corn (Zea mays), blackgrass (Alopecurus myosuroides), and galium (catchweed bedstraw, Galium aparine) were planted in pots containing the same blend of loam soil and sand and treated with postemergence applications of test chemicals formulated in the same manner. Plants ranged in height from 2 to 10 cm and were in the one- to two-leaf stage for the postemergence treatment. Treated plants and untreated controls were maintained in a greenhouse for approximately 10 days, after which time all treated plants were compared to untreated controls and visually evaluated for injury. Plant response ratings, summarized in Table A, are based on a 0 to 100 scale where 0 is no effect and 100 is complete control. A dash (-) response means no test result.

[2] = system: ragweed (common ragweed, Ambrosia elatior); test: Test A postemergence, visual plant response rating; conditions: for Ragweed plant response rating (0 to 100 scale): 500 g ai/ha, postemergence, 0 is no effect, 100 is complete control; for Ragweed plant response rating: Postemergence, 125 g ai/ha, 0 to 100 scale (0 no effect, 100 complete control)
Excerpt: as §1, §2

[3] = system: galium (catchweed bedstraw, Galium aparine); test: Test A postemergence, visual plant response rating; conditions: for Galium plant response rating (0 to 100 scale): 500 g ai/ha, postemergence, 0 is no effect, 100 is complete control; for Galium plant response rating: Postemergence, 125 g ai/ha, 0 to 100 scale (0 no effect, 100 complete control)
Excerpt: as §1, §2

[4] = system: barnyardgrass (Echinochloa crus-galli); test: Test A postemergence, visual plant response rating; conditions: for Barnyardgrass plant response rating (0 to 100 scale): 500 g ai/ha, postemergence, 0 is no effect, 100 is complete control; for Barnyardgrass plant response rating: Postemergence, 125 g ai/ha, 0 to 100 scale (0 no effect, 100 complete control)
Excerpt: as §1, §2

[5] = system: Italian ryegrass (Lolium multiflorum); test: Test A postemergence, visual plant response rating; conditions: for Ryegrass, Italian plant response rating (0 to 100 scale): 500 g ai/ha, postemergence, 0 is no effect, 100 is complete control; for Ryegrass, Italian plant response rating: Postemergence, 125 g ai/ha, 0 to 100 scale (0 no effect, 100 complete control)
Excerpt: as §1, §2

[6] = system: pigweed (Amaranthus retroflexus); test: Test A postemergence, visual plant response rating; conditions: for Pigweed plant response rating (0 to 100 scale): 500 g ai/ha, postemergence, 0 is no effect, 100 is complete control; for Pigweed plant response rating: Postemergence, 125 g ai/ha, 0 to 100 scale (0 no effect, 100 complete control)
Excerpt: as §1, §2

corn (Zea mays) = test: Test A postemergence, visual plant response rating; conditions: for Corn plant response rating (0 to 100 scale): 500 g ai/ha, postemergence, 0 is no effect, 100 is complete control; for Corn plant response rating: Postemergence, 125 g ai/ha, 0 to 100 scale (0 no effect, 100 complete control)
Excerpt: as §1, §2

[7] = system: wheat (Triticum aestivum); test: Test A postemergence, visual plant response rating; conditions: for Wheat plant response rating (0 to 100 scale): 500 g ai/ha, postemergence, 0 is no effect, 100 is complete control; for Wheat plant response rating: Postemergence, 125 g ai/ha, 0 to 100 scale (0 no effect, 100 complete control)
Excerpt: as §1, §2

kochia (Kochia scoparia) [8] = test: Test A postemergence, visual plant response rating; conditions: for Kochia plant response rating (0 to 100 scale): 500 g ai/ha, postemergence, 0 is no effect, 100 is complete control; for Kochia plant response rating: Postemergence, 125 g ai/ha, 0 to 100 scale (0 no effect, 100 complete control)
Excerpt: as §1, §2

[9] = system: blackgrass (Alopecurus myosuroides); test: Test A postemergence, visual plant response rating; conditions: for Blackgrass plant response rating (0 to 100 scale): 500 g ai/ha, postemergence, 0 is no effect, 100 is complete control; for Blackgrass plant response rating: Postemergence, 125 g ai/ha, 0 to 100 scale (0 no effect, 100 complete control)
Excerpt: as §1, §2

[10] = system: barnyardgrass (Echinochloa crus-galli); test: Test B flooded paddy test, visual plant response rating; conditions: 250 g ai/ha, Flood, applied to paddy water, 2-leaf stage, evaluated after 13 to 15 days
Experimental: (§3) Plant species in the flooded paddy test selected from rice (Oryza sativa), sedge, umbrella (small-flower umbrella sedge, Cyperus difformis), ducksalad (Heteranhera limosa), and barnyardgrass (Echinochloa crus-galli) were grown to the 2-leaf stage for testing. At time of treatment, test pots were flooded to 3 cm above the soil surface treated by application of test compounds directly to the paddy water, and then maintained at that water depth for the duration of the test. Treated plants and controls were maintained in a greenhouse for 13 to 15 days, after which time all species were compared to controls and visually evaluated. […] A dash (-) response means no test result.

[11] = system: sedge, umbrella (small-flower umbrella sedge, Cyperus difformis); test: as above; conditions: 250 g ai/ha, Flood, applied to paddy water, 2-leaf stage, evaluated after 13 to 15 days
Experimental: as §3

rice (Oryza sativa) = test: as above; conditions: 250 g ai/ha, Flood, applied to paddy water, 2-leaf stage, evaluated after 13 to 15 days
Experimental: as §3

[12] = system: ducksalad (Heteranhera limosa); test: as above; conditions: 250 g ai/ha, Flood, applied to paddy water, 2-leaf stage, evaluated after 13 to 15 days
Experimental: as §3

[13] = system: foxtail, giant (giant foxtail, Setaria faberii); test: Test A preemergence, visual plant response rating; conditions: for Foxtail, Giant plant response rating: 125 g ai/ha, preemergence, 0 to 100 scale, 0 no effect, 100 complete control; for Foxtail, Giant plant response rating (0 to 100 scale): 500 g ai/ha Preemergence, approx. 10 days
Excerpt: as §1, §2

[14] = system: barnyardgrass (Echinochloa crus-galli); test: Test A preemergence, visual plant response rating; conditions: for Barnyardgrass plant response rating: 125 g ai/ha, preemergence, 0 to 100 scale, 0 no effect, 100 complete control; for Barnyardgrass plant response rating (0 to 100 scale): 500 g ai/ha Preemergence, approx. 10 days
Excerpt: as §1, §2

[15] = system: Italian ryegrass (Lolium multiflorum); test: Test A preemergence, visual plant response rating; conditions: for Ryegrass, Italian plant response rating: 125 g ai/ha, preemergence, 0 to 100 scale, 0 no effect, 100 complete control; for Ryegrass, Italian plant response rating (0 to 100 scale): 500 g ai/ha Preemergence, approx. 10 days
Excerpt: as §1, §2

[16] = system: pigweed (Amaranthus retroflexus); test: Test A preemergence, visual plant response rating; conditions: for Pigweed plant response rating: 125 g ai/ha, preemergence, 0 to 100 scale, 0 no effect, 100 complete control; for Pigweed plant response rating (0 to 100 scale): 500 g ai/ha Preemergence, approx. 10 days
Excerpt: as §1, §2

kochia (Kochia scoparia) [17] = test: Test A preemergence, visual plant response rating; conditions: for Kochia plant response rating: 125 g ai/ha, preemergence, 0 to 100 scale, 0 no effect, 100 complete control; for Kochia plant response rating (0 to 100 scale): 500 g ai/ha Preemergence, approx. 10 days
Excerpt: as §1, §2

| SMILES | Foxtail, Giant plant response rating (0 to 100 scale) [1] | Foxtail, Giant plant response rating [1] | Ragweed plant response rating (0 to 100 scale) [2] | Ragweed plant response rating [2] | Galium plant response rating (0 to 100 scale) [3] | Galium plant response rating [3] | Barnyardgrass plant response rating (0 to 100 scale) [4] | Barnyardgrass plant response rating [4] | Ryegrass, Italian plant response rating (0 to 100 scale) [5] | Ryegrass, Italian plant response rating [5] | Pigweed plant response rating (0 to 100 scale) [6] | Pigweed plant response rating [6] | Corn plant response rating (0 to 100 scale) (corn (Zea mays)) | Corn plant response rating (corn (Zea mays)) | Wheat plant response rating (0 to 100 scale) [7] | Wheat plant response rating [7] | Kochia plant response rating (0 to 100 scale) (kochia (Kochia scoparia) [8]) | Kochia plant response rating (kochia (Kochia scoparia) [8]) | Blackgrass plant response rating (0 to 100 scale) [9] | Blackgrass plant response rating [9] | also measured |
| --- | --- | --- | --- | --- | --- | --- | --- | --- | --- | --- | --- | --- | --- | --- | --- | --- | --- | --- | --- | --- | --- |
| Cc1nn(C)c(=O)c(/C(=N/OC(C)C)c2ccc(F)c3ccccc23)c1O [Compound 88] | 90 | 80 | 90 | 100 | 90 | 90 | 80 | 50 | 100 | 100 | 100 | 90 | 30 | 10 | 50 | 10 | 70 | 60 | 90 | 80 | Plant response rating, Barnyardgrass (0 to 100 scale, 0 is no effect, 100 is complete control) [10]: 0; Plant response rating, Sedge, Umbrella (0 to 100 scale, 0 is no effect, 100 is complete control) [11]: 0; Plant response rating, Rice (0 to 100 scale, 0 is no effect, 100 is complete control) (rice (Oryza sativa)): 0; Plant response rating, Ducksalad (0 to 100 scale, 0 is no effect, 100 is complete control) [12]: 0; Foxtail, Giant plant response rating [13]: 90; Foxtail, Giant plant response rating (0 to 100 scale) [13]: 100; Barnyardgrass plant response rating [14]: 70; Barnyardgrass plant response rating (0 to 100 scale) [14]: 90; Ryegrass, Italian plant response rating [15]: 90; Ryegrass, Italian plant response rating (0 to 100 scale) [15]: 100; Pigweed plant response rating [16]: 100; Pigweed plant response rating (0 to 100 scale) [16]: 100; Kochia plant response rating (kochia (Kochia scoparia) [17]): 10; Kochia plant response rating (0 to 100 scale) (kochia (Kochia scoparia) [17]): 90 |
| Cc1nn(C)c(=O)c(/C(=N\OC(C)C)c2ccc(F)c3ccccc23)c1O [Compound 89] | 80 | 70 | 90 | 90 | 90 | 90 | 60 | 40 | 100 | 100 | 100 | 80 | 30 | 20 | 70 | 50 | 80 | 70 | 100 | 90 | Plant response rating, Barnyardgrass (0 to 100 scale, 0 is no effect, 100 is complete control) [10]: 0; Plant response rating, Sedge, Umbrella (0 to 100 scale, 0 is no effect, 100 is complete control) [11]: 0; Plant response rating, Rice (0 to 100 scale, 0 is no effect, 100 is complete control) (rice (Oryza sativa)): 0; Plant response rating, Ducksalad (0 to 100 scale, 0 is no effect, 100 is complete control) [12]: 0; Foxtail, Giant plant response rating [13]: 90; Foxtail, Giant plant response rating (0 to 100 scale) [13]: 100; Barnyardgrass plant response rating [14]: 70; Barnyardgrass plant response rating (0 to 100 scale) [14]: 100; Ryegrass, Italian plant response rating [15]: 90; Ryegrass, Italian plant response rating (0 to 100 scale) [15]: 100; Pigweed plant response rating [16]: 100; Pigweed plant response rating (0 to 100 scale) [16]: 100; Kochia plant response rating (kochia (Kochia scoparia) [17]): 60; Kochia plant response rating (0 to 100 scale) (kochia (Kochia scoparia) [17]): 90 |
| CON=C(c1cc(Cl)ccc1Cl)c1c(O)c(C)nn(C)c1=O [Compound 90] | 80 | 30 | 90 | 70 | 90 | 90 | 60 | 20 | 90 | 80 | 90 | 60 | 30 | 20 | 40 | 30 | 80 | 60 | 90 | 80 | Plant response rating, Barnyardgrass (0 to 100 scale, 0 is no effect, 100 is complete control) [10]: 0; Plant response rating, Sedge, Umbrella (0 to 100 scale, 0 is no effect, 100 is complete control) [11]: 0; Plant response rating, Rice (0 to 100 scale, 0 is no effect, 100 is complete control) (rice (Oryza sativa)): 0; Plant response rating, Ducksalad (0 to 100 scale, 0 is no effect, 100 is complete control) [12]: 0; Foxtail, Giant plant response rating [13]: 50; Foxtail, Giant plant response rating (0 to 100 scale) [13]: 90; Barnyardgrass plant response rating [14]: 60; Barnyardgrass plant response rating (0 to 100 scale) [14]: 80; Ryegrass, Italian plant response rating [15]: 60; Ryegrass, Italian plant response rating (0 to 100 scale) [15]: 90; Pigweed plant response rating [16]: 90; Pigweed plant response rating (0 to 100 scale) [16]: 100; Kochia plant response rating (kochia (Kochia scoparia) [17]): 50; Kochia plant response rating (0 to 100 scale) (kochia (Kochia scoparia) [17]): 70 |
| CON=C(c1cc(Cl)ccc1Cl)c1c(O)c(C)nn(C)c1=O [Compound 98] | 80 | 40 | 90 | 80 | 100 | 80 | 80 | 50 | 80 | 80 | 80 | 70 | 20 | 0 | 20 | 0 | 80 | 60 | 90 | 80 | Plant response rating, Barnyardgrass (0 to 100 scale, 0 is no effect, 100 is complete control) [10]: 0; Plant response rating, Sedge, Umbrella (0 to 100 scale, 0 is no effect, 100 is complete control) [11]: 0; Plant response rating, Rice (0 to 100 scale, 0 is no effect, 100 is complete control) (rice (Oryza sativa)): 0; Plant response rating, Ducksalad (0 to 100 scale, 0 is no effect, 100 is complete control) [12]: 0; Foxtail, Giant plant response rating [13]: 60; Foxtail, Giant plant response rating (0 to 100 scale) [13]: 70; Barnyardgrass plant response rating [14]: 50; Barnyardgrass plant response rating (0 to 100 scale) [14]: 60; Ryegrass, Italian plant response rating [15]: 80; Ryegrass, Italian plant response rating (0 to 100 scale) [15]: 90; Pigweed plant response rating [16]: 90; Pigweed plant response rating (0 to 100 scale) [16]: 100; Kochia plant response rating (kochia (Kochia scoparia) [17]): 60; Kochia plant response rating (0 to 100 scale) (kochia (Kochia scoparia) [17]): 60 |
